# Data reported in patent US20120115869A1, “TETRAZOLE DERIVATIVES” (MERCK SERONO S.A., priority 2009, published 2012).
# Biological target: T1, CRTH2 (DP2) (Homo sapiens, UniProt Q9Y5Y4)
# T1 construct: host or cells: CHO cells
# T1 sequence (Q9Y5Y4 1-395): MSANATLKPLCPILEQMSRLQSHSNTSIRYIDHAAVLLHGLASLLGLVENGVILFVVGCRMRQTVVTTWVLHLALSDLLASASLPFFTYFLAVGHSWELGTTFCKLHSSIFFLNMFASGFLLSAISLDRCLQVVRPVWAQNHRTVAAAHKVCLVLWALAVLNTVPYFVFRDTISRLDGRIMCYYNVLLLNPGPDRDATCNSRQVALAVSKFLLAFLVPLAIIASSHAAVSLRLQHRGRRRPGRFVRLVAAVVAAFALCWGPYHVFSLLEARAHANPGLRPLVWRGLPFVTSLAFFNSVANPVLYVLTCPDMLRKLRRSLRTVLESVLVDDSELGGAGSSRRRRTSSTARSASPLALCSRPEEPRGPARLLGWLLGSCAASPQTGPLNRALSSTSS
# Test: Radioligand binding Scintillation Proximity Assay ([3H]PGD2, hCRTH2-CHO cell membranes)
# Conditions: 1.5 nM [3H]PGD2, hCRTH2-CHO cell membranes, SPA
# Description: Adherent CHO cells expressing hCRTH2 (Euroscreen, Belgium) were cultured in 225 cm^2 cell culture flasks (Corning, USA) in 30 ml of medium. After two rinses of phosphate buffered saline (PBS), cells were harvested in 10 ml of PBS containing 1 mM EDTA, centrifuged at 500×g for 5 min at 4° C. and frozen at −80° C. The pellet was re-suspended in 50 mM Tris-HCl, pH 7.4, 2 mM EDTA, 250 mM Sucrose, containing protease inhibitor cocktail tablets, (Complete EDTA-free, Roche, Germany) and incubated 30 min at 4° C. Cells were disrupted by nitrogen cavitation (Parr Instruments, USA) at 4° C. (800 p.s.i. for 30 min), and centrifuged at 500×g for 10 min at 4° C. Pellet containing nuclei and cellular debris was discarded and supernatant was centrifuged 60 min at 4° C. at 45000×g. Membrane pellet was re-suspended in storage buffer (10 mM HEPES/KOH pH 7.4, 1 mM EDTA, 250 mM sucrose, protease inhibitor cocktail tablets) using Dounce homogenization and frozen in liquid nitrogen, and stored at 80° C.
# Non-specific binding was determined in the presence of 10 μM PGD2 (Cayman, USA). Competing Compounds of Formula (I) were diluted in dimethylsulphoxide so that the total volume of dimethylsulfoxide was kept constant at 1% dimethylsulphoxide (Me2SO). Serial dilutions of […] were prepared and 10 μl each of the compounds of Formula (I) stock solutions were added to the binding assay reagents and incubated for 90 min with agitation at room temperature.
row,Structure (SMILES),IC50 [nM]
1,"CCC(=O)N(Cc1ccncc1)c1cccc(-c2nnn[nH]2)c1 [Example 52, N-(pyridin-4-ylmethyl)-N-[3-(1H-tetrazol-5-yl)phenyl]propanamide]",6680
2,"CCC(=O)N(Cc1cccc(F)c1)c1cccc(-c2nnn[nH]2)c1 [Example 32, N-(3-fluorobenzyl)-N-[3-(1H-tetrazol-5-yl)phenyl]propanamide]",1690
3,"CCC(=O)N(Cc1cccc(-c2ccncc2)c1)c1cccc(-c2nnn[nH]2)c1 [Example 96, N-(3-pyridin-4-ylbenzyl)-N-[3-(1H-tetrazol-5-yl)phenyl]propanamide]",330
4,"CCC(=O)N(Cc1cccs1)c1cccc(-c2nnn[nH]2)c1 [Example 17, N-[3-(1H-tetrazol-5-yl)phenyl]-N-(2-thienylmethyl)propanamide]",1590
5,"CCC(=O)N(Cc1cccnc1)c1cccc(-c2nnn[nH]2)c1 [Example 51, N-(pyridin-3-ylmethyl)-N-[3-(1H-tetrazol-5-yl)phenyl]propanamide]",6750
6,"CCC(=O)N(Cc1cccc(C(F)(F)F)c1)c1cccc(-c2nnn[nH]2)c1 [Example 28, N-[3-(1H-tetrazol-5-yl)phenyl]-N-[3-(trifluoromethyl)benzyl]propanamide]",268
7,"CCC(=O)N(Cc1ccccc1F)c1cccc(-c2nnn[nH]2)c1 [Example 33, N-(2-fluorobenzyl)-N-[3-(1H-tetrazol-5-yl)phenyl]propanamide]",1160
8,"CCC(=O)N(Cc1cccc(-c2cccnc2)c1)c1cccc(-c2nnn[nH]2)c1 [Example 64, N-(3-pyridin-3-ylbenzyl)-N-[3-(1H-tetrazol-5-yl)phenyl]propanamide]",403
9,"CCC(=O)N(Cc1cccc(C#CCO)c1)c1cccc(-c2nnn[nH]2)c1 [Example 48, N-[3-(3-hydroxyprop-1-yn-1-yl)benzyl]-N-[3-(1H-tetrazol-5-yl)phenyl]propanamide]",1270
10,"CCC(=O)N(Cc1ccc(OC)cc1)c1cccc(-c2nnn[nH]2)c1 [Example 26, N-(4-methoxybenzyl)-N-[3-(1H-tetrazol-5-yl)phenyl]propanamide]",268
11,"CCC(=O)N(Cc1cccc(OC(F)(F)F)c1)c1cccc(-c2nnn[nH]2)c1 [Example 42, N-[3-(1H-tetrazol-5-yl)phenyl]-N-[3-(trifluoromethoxy)benzyl]propanamide]",245
12,"CCC(=O)N(Cc1nonc1C)c1cccc(-c2nnn[nH]2)c1 [Example 44, N-[(4-methyl-1,2,5-oxadiazol-3-yl)methyl]-N-[3-(1H-tetrazol-5-yl)phenyl]propanamide]",2100
13,"CCC(=O)N(Cc1cccc(OC)c1)c1cccc(-c2nnn[nH]2)c1 [Example 25, N-(3-methoxybenzyl)-N-[3-(1H-tetrazol-5-yl)phenyl]propanamide]",444
14,"CCC(=O)N(Cc1ccccc1)c1cccc(-c2nnn[nH]2)c1 [Example 30, N-benzyl-N-[3-(1H-tetrazol-5-yl)phenyl]propanamide]",2250
15,"CCC(=O)N(Cc1c(C)noc1-c1ccccc1)c1cccc(-c2nnn[nH]2)c1 [Example 24, N-[(3-methyl-5-phenylisoxazol-4-yl)methyl]-N-[3-(1H-tetrazol-5-yl)phenyl]propanamide]",2180
16,"CCC(=O)N(Cc1ccc(-c2cn[nH]c2)cc1)c1cccc(-c2nnn[nH]2)c1 [Example 70, N-[4-(1H-pyrazol-4-yl)benzyl]-N-[3-(1H-tetrazol-5-yl)phenyl]propanamide]",455
17,"CCC(=O)N(Cc1cccc(-c2sc(C)nc2C)c1)c1cccc(-c2nnn[nH]2)c1 [Example 63, N-[3-(2,4-dimethyl-1,3-thiazol-5-yl)benzyl]-N-[3-(1H-tetrazol-5-yl)phenyl]propanamide]",235
18,"CCC(=O)N(Cc1cccc(-c2c(C)noc2C)c1)c1cccc(-c2nnn[nH]2)c1 [Example 61, N-[3-(3,5-dimethylisoxazol-4-yl)benzyl]-N-[3-(1H-tetrazol-5-yl)phenyl]propanamide]",305

# These reach a lower IC50. Values come first.
row,IC50 [nM],Structure (SMILES)
1,8.9,"CCC(=O)N(Cc1ccc(-c2ccccc2C)cc1)c1cc(F)cc(-c2nnn[nH]2)c1 [Example 102, N-[3-fluoro-5-(1H-tetrazol-5-yl)phenyl]-N-[(2′-methylbiphenyl-4-yl)methyl]propanamide]"
2,113,"CCC(=O)N(Cc1ccc(-c2cnoc2)cc1)c1cc(F)cc(-c2nnn[nH]2)c1 [Example 111, N-[3-fluoro-5-(1H-tetrazol-5-yl)phenyl]-N-(4-isoxazol-4-ylbenzyl)propanamide]"
3,182,"CCC(=O)N(Cc1ccc(-c2c(C)noc2C)cc1)c1cccc(-c2nnn[nH]2)c1 [Example 71, N-[4-(3,5-dimethylisoxazol-4-yl)benzyl]-N-[3-(1H-tetrazol-5-yl)phenyl]propanamide]"
4,21,"CCC(=O)N(Cc1ccc(-c2c(C)nn(C)c2C)cc1)c1cc(F)cc(-c2nnn[nH]2)c1 [Example 94, N-[3-fluoro-5-(1H-tetrazol-5-yl)phenyl]-N-[4-(1,3,5-trimethyl-1H-pyrazol-4-yl)benzyl]propanamide]"
5,13,"CCC(=O)N(Cc1ccc2c(c1)OC(F)(F)O2)c1cc(Cl)cc(-c2nnn[nH]2)c1 [Example 103, N-[3-chloro-5-(1H-tetrazol-5-yl)phenyl]-N-[(2,2-difluoro-1,3-benzodioxol-5-yl)methyl]propanamide]"
6,140,"CCCCC(=O)N(Cc1cccc(O)c1)c1cccc(-c2nnn[nH]2)c1 [Example 79, N-(3-hydroxybenzyl)-N-[3-(1H-tetrazol-5-yl)phenyl]pentanamide]"
7,65,"CCC(=O)N(Cc1ccc2ccccc2n1)c1cc(F)cc(-c2nnn[nH]2)c1 [Example 80, N-[3-fluoro-5-(1H-tetrazol-5-yl)phenyl]-N-(quinolin-2-ylmethyl)propanamide]"
8,8.9,"CCCCC(=O)N(Cc1ccc(OC(F)(F)F)cc1)c1cc(F)cc(-c2nnn[nH]2)c1 [Example 35, N-[3-fluoro-5-(1H-tetrazol-5-yl)phenyl]-N-[4-(trifluoromethoxy)benzyl]pentanamide]"
9,16,"CCOCC(=O)N(Cc1ccc(OC(F)(F)F)cc1)c1cc(Cl)cc(-c2nnn[nH]2)c1 [Example 67, N-[3-chloro-5-(1H-tetrazol-5-yl)phenyl]-2-ethoxy-N-[4-(trifluoromethoxy)benzyl]acetamide]"
10,21,"CCC(=O)N(Cc1ccc(-c2cn(C)nc2C)cc1)c1cc(F)cc(-c2nnn[nH]2)c1 [Example 88, N-[4-(1,3-dimethyl-1H-pyrazol-4-yl)benzyl]-N-[3-fluoro-5-(1H-tetrazol-5-yl)phenyl]propanamide]"
11,169,"CCCCC(=O)N(Cc1ccc(O)cc1)c1cccc(-c2nnn[nH]2)c1 [Example 74, N-(4-hydroxybenzyl)-N-[3-(1H-tetrazol-5-yl)phenyl]pentanamide]"
12,170,"CCNS(=O)(=O)c1cccc(-c2ccc(CN(C(=O)CC)c3cc(F)cc(-c4nnn[nH]4)c3)cc2)c1 [Example 86, N-({3′-[(ethylamino)sulfonyl]biphenyl-4-yl}methyl)-N-[3-fluoro-5-(1H-tetrazol-5-yl)phenyl]propanamide]"
13,19,"CCC(=O)N(Cc1cccc(-c2cn[nH]c2)c1)c1cc(F)cc(-c2nnn[nH]2)c1 [Example 101, N-[3-fluoro-5-(1H-tetrazol-5-yl)phenyl]-N-[3-(1H-pyrazol-4-yl)benzyl]propanamide]"
14,54,"CCCCC(=O)N(Cc1ccc2c(c1)OCCO2)c1cc(-c2nnn[nH]2)c(F)cc1F [Example 10, N-[2,4-difluoro-5-(1H-tetrazol-5-yl)phenyl]-N-(2,3-dihydro-1,4-benzodioxin-6-ylmethyl)pentanamide]"
15,2.9,"Cc1ccc(CCC(=O)N(Cc2ccc(S(C)(=O)=O)cc2)c2cc(F)cc(-c3nnn[nH]3)c2)cc1 [Example 107, N-[3-fluoro-5-(1H-tetrazol-5-yl)phenyl]-3-(4-methylphenyl)-N-[4-(methylsulfonyl)benzyl]propanamide]"
16,56,"Cc1cc(C(=O)N(Cc2ccc(S(C)(=O)=O)cc2)c2cc(F)cc(-c3nnn[nH]3)c2)n(C)n1 [Example 110, N-[3-fluoro-5-(1H-tetrazol-5-yl)phenyl]-1,3-dimethyl-N-[4-(methylsulfonyl)benzyl]-1H-pyrazole-5-carboxamide]"
17,175,"C#Cc1cccc(CN(C(C)=O)c2cc(-c3nnn[nH]3)ccc2F)c1 [Example 2, N-(3-ethynylbenzyl)-N-[2-fluoro-5-(1H-tetrazol-5-yl)phenyl]acetamide]"
18,61,"CCCCC(=O)N(Cc1ccc(OC)cc1)c1cccc(-c2nnn[nH]2)c1 [Example 14, N-(4-methoxybenzyl)-N-[3-(1H-tetrazol-5-yl)phenyl]pentanamide]"
